## CO/C=C(/C(=O)OC)c1ccccc1COc1ncn(-c2ccccc2Cl)n1 [Compound 12, Methyl α-(2-(N′-(o-chlorophenyl)-triazolyl-3′-oxymethyl)-phenyl)-β-methoxyacrylate]
  melting point: 120 °C

— patent US6380231B1 (priority 1995, dated 2002)
